Experimental data: the supplement of paper PMC13380429

Legend:
Details in all cases: 72 h
HepG2 [1] = assay: cell viability relative to DMSO; higher = less toxic
Vero E6 [2] = assay: as above
U2OS [3] = assay: as above
Caco-2 [4] = assay: as above
HepG2 [5] = assay: relative viability EC50 (midpoint between 100% and the lowest measured viability); higher = less toxic
Vero E6 [6] = assay: as above
U2OS [7] = assay: as above
Caco-2 [8] = assay: as above
HepG2 [9] = assay: drug sensitivity score (DSS) for viability; higher = more toxic; extreme values may be limits of the assay
Vero E6 [10] = assay: as above
U2OS [11] = assay: as above
Caco-2 [12] = assay: as above
Calu-3 [13] = assay: cell viability relative to DMSO; higher = less toxic
Calu-3 [14] = assay: relative viability EC50 (midpoint between 100% and the lowest measured viability); higher = less toxic
Calu-3 [15] = assay: drug sensitivity score (DSS) for viability; higher = more toxic; extreme values may be limits of the assay

Structure (SMILES)	cell viability (HepG2 [1]; 1 nM) [%]	cell viability (HepG2 [1]; 10 nM) [%]	cell viability (HepG2 [1]; 100 nM) [%]	cell viability (HepG2 [1]; 1000 nM) [%]	cell viability (HepG2 [1]; 10000 nM) [%]	cell viability (Vero E6 [2]; 1 nM) [%]	cell viability (Vero E6 [2]; 10 nM) [%]	cell viability (Vero E6 [2]; 100 nM) [%]	cell viability (Vero E6 [2]; 1000 nM) [%]	cell viability (Vero E6 [2]; 10000 nM) [%]	cell viability (U2OS [3]; 1 nM) [%]	cell viability (U2OS [3]; 10 nM) [%]	cell viability (U2OS [3]; 100 nM) [%]	cell viability (U2OS [3]; 1000 nM) [%]	cell viability (U2OS [3]; 10000 nM) [%]	cell viability (Caco-2 [4]; 1 nM) [%]	cell viability (Caco-2 [4]; 10 nM) [%]	cell viability (Caco-2 [4]; 100 nM) [%]	cell viability (Caco-2 [4]; 1000 nM) [%]	cell viability (Caco-2 [4]; 10000 nM) [%]	relative viability EC50 (HepG2 [5]) [µM]	relative viability EC50 (Vero E6 [6]) [µM]	relative viability EC50 (U2OS [7]) [µM]	relative viability EC50 (Caco-2 [8]) [µM]	drug sensitivity score (HepG2 [9])	drug sensitivity score (Vero E6 [10])	drug sensitivity score (U2OS [11])	drug sensitivity score (Caco-2 [12])	cell viability (Calu-3 [13]; 1 nM) [%]	cell viability (Calu-3 [13]; 10 nM) [%]	cell viability (Calu-3 [13]; 100 nM) [%]	cell viability (Calu-3 [13]; 1000 nM) [%]	cell viability (Calu-3 [13]; 10000 nM) [%]	relative viability EC50 (Calu-3 [14]) [µM]	drug sensitivity score (Calu-3 [15])
CC(C)(C)CC(=O)Nc1c(F)cc(C(=O)/N=c2\sccn2COP(=O)(O)O)cc1F	101	114	94.8	98.9	96.9	107	104	102	96.5	94.3	95.8	101	97	98.2	95.5	97.9	109	99.4	104	92.3	> 10	> 10	> 10	> 10	0	0	0	0							
Nc1cccc(CNC(=O)c2ccc(Oc3ccc(OCc4cccc(F)c4)cc3)nc2)c1	92.9	102	103	91.8	77.9	93.4	99.9	98.8	102	99.3	99	106	94.8	101	92.1	100	102	91.5	107	71.2	> 10	> 10	> 10		1.7	0	0	0.9	104	101	96.1	97.7	81.9	> 10	0.7
Nc1nccc(-c2c(-c3ccc(F)cc3)ncn2C2CCCCC2)n1	97.8	99.7	100	92.4	43.3	105	103	99.2	108	79.8	98.2	102	103	95.5	85	102	96.2	97.3	85.2	74.8	2.08	> 10	> 10		4.3	0.4	0.6	2.3	91.1	100	105	87	62.1		3.7
Nc1ncnc2c1c(-c1ccc(Oc3ccccc3)cc1)nn2C1CCCC1	89.7	101	92	88.3	82	94.2	100	97.1	90.8	87.1	102	97.3	101	97.4	78.7	109	96.7	95.7	93.6	70.1	> 10	> 10	> 10		1	0.3	1.1	2.3	105	104	99	95.8	54.5		3
Oc1cc2c(cc1O)[C@H]1c3ccccc3CN[C@@H]1CC2 (racemic) [dihydrexidine]	83.4	95.8	90.9	93.2	82.1	96.7	96.7	96.8	97.6	104	101	93.2	104	96.9	104	102	97.7	99.6	92.6	97.9	> 10	> 10	> 10	> 10	0	0	0	0							
Cc1c(NC(=O)c2cc3c(s2)CCCC3)cccc1-c1cn(C)c(=O)c(Nc2ccc(C3C(=O)N(C)CCN3C)cc2)n1 (stereo in doubt) [GDC-0834]	106	95.6	94.7	107	97.2	105	101	104	97.4	105	103	99.1	98.5	101	92.7	104	98.3	99.9	96.3	74.6	> 10	> 10	> 10		0	0	0	1.5	96.6	100	96.2	95.4	95.8	> 10	0
CCC(=O)OCC(=O)[C@@]1(OC(=O)CC)[C@@H](C)C[C@H]2[C@@H]3CCC4=CC(=O)C=C[C@]4(C)[C@@]3(F)[C@@H](O)C[C@@]21C [BETAMETHASONE 17,21-DIPROPIONATE]	103	88.3	101	95.5	110	103	95.2	91.2	92.9	99.1	91.6	96.8	93.7	97	102	99	97.8	99.9	111	98.2	> 10	> 10	> 10	> 10	0	0	0	0							
CSc1nc(-c2ccc(F)cc2)c(-c2ccnc(N[C@@H](C)c3ccccc3)c2)[nH]1 [ML3403]	100	101	97.6	105	86.5	102	105	101	99.8	88.7	99.9	99.1	100	94.8	90.9	94.6	93.4	97.3	94.2	74.2	> 10	> 10	> 10		0.1	0	0	1.9	101	99.1	103	94.5	89.8	> 10	0
COC(=O)c1cc2c(C(F)(F)F)cc(-c3ccccc3)cc2n1O [NHI-2]	95.1	103	110	98.2	99.3	104	104	98.8	101	97.5	103	98.1	102	97.1	101	106	90.2	102	90.1	91.2	> 10	> 10	> 10	> 10	0	0	0	0							
COc1cc(N2CCC(N3CCN(C)CC3)CC2)ccc1Nc1ncc(Cl)c(Nc2ccccc2S(=O)(=O)C(C)C)n1 [NVP-TAE684]	91.7	96.1	103	63.9	34.2	100	97.2	93.5	89.5	42.6	106	97.9	102	91.2	22.9	103	104	101	87.4	53.5	0.926	1.81	2.22		8.1	4.9	5.7	4.3	97.2	94.5	90.2	86.6	61.5		3.4
CC(=O)c1cnc2ccc(-c3cc(Cl)c(O)c(Cl)c3)nc2c1N[C@H]1CC[C@H](CN(C)C)CC1 [OTS167]	108	84.7	11.4	5.1	3.9	96.4	100	6.3	11.7	2.6	97.6	86.7	10.7	5.5	0	98.5	98.4	41.1	34.8	12	0.0253	0.0351	0.0295	0.0765	30.3	29.2	30.5	21.5							
CSC[C@H](N)C(=O)O [S-methylcysteine]	89.3	100	95.6	92.3	99.3	92.8	93.6	97.1	96.3	105	101	98.7	104	98.1	102	79.7	105	86.5	101	97.3	> 10	> 10	> 10	> 10	0	0	0	0							
COCCCOc1cc(C[C@@H](C[C@H](N)[C@@H](O)C[C@H](C(=O)NCC(C)(C)C(N)=O)C(C)C)C(C)C)ccc1OC [aliskiren-hemifumarate]	111	103	103	87.5	100	93.8	95.3	91.8	93.9	93.2	97.2	102	101	103	93.7	84.8	81.9	70.4	89.1	100	> 10	> 10	> 10		0	0	0	3.7	88.8	101	96.5	96	88	> 10	0
Cc1nc(C#Cc2ccnc(Cl)c2)c(C)n1-c1ccc(F)cc1 [basimglurant]	104	99.5	102	95.3	77.4	106	101	96.9	102	91.3	91.4	96.1	101	91.9	93.2	101	95.2	101	90.5	66.5	> 10	> 10	> 10		1.4	0	0	3	88.4	90.6	92.2	92.4	95.8	> 10	0
